Assay results taken from patent publication US7572800B2, “Combination therapy to treat hepatitis B virus” (Gilead Sciences, Inc., priority 1998, dated 2009).

Key:
2.2.15 cells = assay: Toxicity analysis by uptake of neutral red dye; conditions: at the concentrations used for the antiviral evaluations
Method: Toxicity analysis were performed in 96-well flat bottomed tissue culture plates. Cells for the toxicity analyses were cultured and treated with test compounds with the same schedule and under identical culture conditions as used for the antiviral evaluations. Each compound was tested at 4 concentrations, each in triplicate cultures. Uptake of neutral red dye was used to determine the relative level of toxicity 24 hours following the last treatment. The absorbance of internalized dye at 510 nM (A510) was used for the quantative analysis. Values are presented as a percentage of the average A510 values (±standard deviations) in 9 separate cultures of untreated cells maintained on the same 96-well plate as the test compounds.

HBV = assay: Antiviral evaluation: extracellular (virion) HBV DNA levels produced by 2.2.15 cells; type: cell-based, hepatitis B virus; conditions: for depression of extracellular (virion) HBV DNA levels: 9 consecutive daily doses
Method: Details of the assay methodology can be found in: Korba and Gerin, Antiviral Res. 19: 55-70 (1992) and Korba, Antiviral Res. 29: 49-52 (1996). The antiviral evaluations were performed on six separate cultures per each of four test concentrations. All wells, in all plates, were seeded at the same density and at the same time.
Due to the inherent variations in the levels of both intracellular and extracellular HBV DNA, only depressions greater than 3.0-fold for HBV virion DNA from the average levels for these HBV DNA forms in untreated cells are generally considered to be statistically significant [P<0.05] (Korba and Gerin, Antiviral Res. 19: 55-70, 1992). Typical values for extracellular HBV virion DNA in untreated cells range from 80 to 150 pg/ml culture medium (average of approximately 92 pg/ml).
For reference, the manner in which the hybridization analyses were performed for these experiments results in an equivalence of approximately 1.0 pg of extracellular HBV DNA/ml culture medium to 3×10^5 viral particles/ml.
For the antiviral test analyses, confluent cultures were maintained on 96-well flat bottomed tissue culture plates. Two separate (replicate) plates were used for each drug treatment. A total of 3 cultures on each plate were treated with each of the dilutions of antiviral agents (6 cultures per dilution). Cultures were treated with 9 consecutive daily doses of the test compounds. Medium was changed daily with fresh test compounds. Only extracellular (virion) HBV DNA levels were followed.

## Nc1ccn([C@@H]2CS[C@H](CO)O2)c(=O)n1 [3TC, (−)β,L,2′,3′-dideoxy-3′thiacytidine]
2.2.15 cells
  toxicity (greater than 50% depression of neutral red dye uptake levels observed in untreated cells): No significant toxicity

## Nc1nc2c(ncn2CCC(CO)CO)c(=O)[nH]1 [PCV, 2-amino-1,9-dihydro-9-[4-hydroxy-3-(hydroxymethyl)butyl]-6H-purin-6-one, reference compound]
HBV
  anti-HBV activity/potency compared with previous reports or earlier analyses: higher than previously reported
  depression of extracellular (virion) HBV DNA levels: significant depressions
2.2.15 cells
  toxicity (greater than 50% depression of neutral red dye uptake levels observed in untreated cells): No significant toxicity

## Cc1cn([C@H]2O[C@@H](CO)[C@H](O)[C@H]2F)c(=O)[nH]c1=O [L-FMAU, 2′-fluoro-5-methyl-β-L-arabinofuranolyluridine]
HBV
  anti-HBV activity/potency compared with previous reports or earlier analyses: lower than that observed in earlier analyses
  depression of extracellular (virion) HBV DNA levels: significant and selective depressions

## Nc1nc(=O)n([C@@H]2CS[C@H](CO)O2)cc1F [FTC, β-2-Hydroxymethyl-5-(5-fluorocytosin-1-yl)-1,3-oxathiolane]
HBV
  anti-HBV activity/potency compared with previous reports or earlier analyses: lower than that observed in earlier analyses
  depression of extracellular (virion) HBV DNA levels: significant and selective depressions
2.2.15 cells
  toxicity (greater than 50% depression of neutral red dye uptake levels observed in untreated cells): No significant toxicity

## Nc1nc2c(ncn2C2COC(CO)O2)c(=O)[nH]1 (stereo not drawn) [DXG]
HBV
  depression of extracellular (virion) HBV DNA levels: significant and selective depressions

## Nc1nc(N)c2ncn([C@H]3CO[C@@H](CO)O3)c2n1 [DAPD]
HBV
  anti-HBV activity/potency compared with previous reports or earlier analyses: lower than that observed in earlier analyses
  depression of extracellular (virion) HBV DNA levels: significant and selective depressions
